This note sets out measurements from patent US20260256763A1, “Aromatic Amide Derivative, And Preparation Method Therefor And Use Thereof” (Zhejiang Hisun Pharmaceutical Co., Ltd., priority 2023, published 2026).

The structures appear in SMILES notation.

A short description of series [1]: Pharmacokinetic testing in mice. It is filed as in vivo. As to conditions: male, mouse, ICR mice, plasma. Here is the method:
ICR mice were taken as test animals, and intragastrically administered with a control compound AMG650 and compounds 1, 18 and 29 of the present invention, and then drug concentrations in plasma at different moments were determined by an LC/MS/MS method, so as to study pharmacokinetic characteristics of the compounds of the present invention in the mice.
Control compound AMG650, and Compounds 1, 18 and 29.
ICR mice, male, 27.3-30.3 g, purchased from Vital River Laboratory Animal Technology Co., Ltd.
A proper amount of to-be-tested compound was weighed, proper amounts of DMA (N,N-dimethylacetamide), CrEL (polyoxyethylene 35 castor oil) and 5% GS (5% glucose injection) were added in sequence, and the obtained system was evenly mixed by ultrasonic vortex to prepare a 1 mg/mL preparation, wherein DMA, CrEL and 5% GS=10:10:80 (v:v:v).
ICR mice in each to-be-tested compound injection group (9 mice in each group) were fasted overnight and then intragastrically administered with the compound (PO, an administration dosage of the compound was 10 mg/kg and an administration volume of the compound was 10 mL/kg), and were fed 4 hours after administration.
0.25 hours, 0.5 hours, 1 hour, 2 hours, 4 hours, 8 hours, 10 hours and 24 hours before and after administration, about […] of blood was collected through an orbit, and a complete blood sample was placed in an EDTA-K2-containing anticoagulation tube. The collected blood sample was placed on ice, and plasma was centrifugally separated (centrifugation conditions: 1500 g, 10 minutes). The collected plasma was stored at −40~−20° C. before analysis.
A content of the to-be-tested compound in the plasma of the mice after intragastric administration was determined by LC-MS/MS.

For a further series, the system named is HT-29 cells. The series is described as follows: Inhibition on HT-29 cell proliferation (CellTiter-Glo). The note with it: Homo sapiens, HT-29 cells (TP53 R273H mutation), 120 hours. It counts as cell-based. Background: ATP-based viability assays read luminescence as a measure of living cells.

In general, half-life refers to the time in which the quantity being followed falls by half. For orientation: IC50 means the concentration that gives 50% inhibition. Low values mean greater potency, high ones weaker potency.

For `CCS(=O)(=O)Nc1ccc(C(=O)Nc2cc3c(c(N4CCC(F)(F)CC4)c2)OCC3)c(N2CCC3(CC2)CC3)c1` [Example 1, N-(7-(4,4-difluoropiperidin-1-yl)-2,3-dihydrobenzofuran-5-yl)-4-(ethylsulfonamido)-2-(6-azaspiro[2.5]octan-6-yl)benzamide], the half-life in series [1] (10 mg/kg, oral administration (10 mg/mL), read-out: Half-life period T½ (converted)) was 7.36 h. The Cmax in series [1] (10 mg/kg, oral administration (10 mg/mL), read-out: Plasma concentration Cmax) turned out to be 12.4 µg/mL. Further, the AUC(0-inf) in series [1] (oral administration (10 mg/kg), read-out: Area under the curve AUC0-∞) is 95.2 µg·h/mL. Moreover, half-maximal inhibition in the series on HT-29 cells (IC50) was put at 2.4 nM.
